Results reported in ChEMBL document CHEMBL3885861, “Open TG-GATES”.

Organism: Rattus norvegicus
Test: Open TG-GATES - Regimen: Single
Format: toxicity, organism-based, Sprague-Dawley
Set-up: regimen Single, gender Male, age 6 weeks
Settings: in vivo, po, 150 mg/kg, route gavage, dose level Middle; for APTT / Bas / Eos / Fbg / Hb / Ht / Lym / MCH / MCHC / MCV / Mono / Neu / PT / Plat / RBC / Ret / WBC: tissue Blood; for KIDNEY_L / KIDNEY_R / KIDNEY_TOTAL: tissue Kidney; for LIVER: tissue Liver; for A/G / ALP / ALT / AST / BUN / CRE / Ca / Cl / DBIL / GLC / IP / K / LDH / Na / PL / RALB / TBIL / TC / TG / TP / gamma-GTP: tissue Plasma

## CCC1(c2ccccc2)C(=O)NC(=O)NC1=O [PHENOBARBITAL]
3 h
  TERMINAL_BW: 224.5 g
  APTT: 19.1 s
  Bas: 0.4%
  Eos: 1%
  Fbg: 217.2 mg/dL
  Hb: 13.8 g/dL
  Ht: 38.5%
  Lym: 82.4%
  MCH: 21.6 pg
  MCHC: 35.8%
  MCV: 60.4 fL
  Mono: 3%
  Neu: 12.6%
  PT: 12 s
  Plat: 129.5 x10_4/uL
  RBC: 637.8 x10_4/ul
  Ret: 7.8%
  WBC: 81.1 x10_2/uL
  KIDNEY_L: 1 g
  KIDNEY_R: 1 g
  KIDNEY_TOTAL: 2 g
  LIVER: 10.3 g
  A/G: 1.7
  ALP: 765.6 IU/L
  ALT: 39 IU/L
  AST: 66.4 IU/L
  BUN: 8.8 mg/dL
  CRE: 0.3 mg/dL
  Ca: 10.7 mg/dL
  Cl: 101.2 meq/L
  DBIL: 0.064 mg/dL
  GLC: 184.4 mg/dL
  IP: 9.8 mg/dL
  K: 4.4 meq/L
  LDH: 149.4 IU/L
  Na: 139.8 meq/L
  PL: 145.4 mg/dL
  RALB: 3.3 g/dL
  TBIL: 0.1 mg/dL
  TC: 71.4 mg/dL
  TG: 73.2 mg/dL
  TP: 5.3 g/dL
  gamma-GTP: 1 IU/L
6 h
  TERMINAL_BW: 221.3 g
  APTT: 20.4 s
  Bas: 0.2%
  Eos: 0.6%
  Fbg: 226 mg/dL
  Hb: 13.8 g/dL
  Ht: 38.1%
  Lym: 79%
  MCH: 21.5 pg
  MCHC: 36.3%
  MCV: 59.3 fL
  Mono: 3%
  Neu: 15.4%
  PT: 12 s
  Plat: 125.8 x10_4/uL
  RBC: 643 x10_4/ul
  Ret: 7.6%
  WBC: 90 x10_2/uL
  KIDNEY_L: 1 g
  KIDNEY_R: 1 g
  KIDNEY_TOTAL: 2 g
  LIVER: 9.3 g
  A/G: 1.5
  ALP: 756.8 IU/L
  ALT: 28.4 IU/L
  AST: 60.8 IU/L
  BUN: 8.2 mg/dL
  CRE: 0.4 mg/dL
  Ca: 10.7 mg/dL
  Cl: 100.6 meq/L
  DBIL: 0.07 mg/dL
  GLC: 178.2 mg/dL
  IP: 9.7 mg/dL
  K: 4.2 meq/L
  LDH: 178.4 IU/L
  Na: 139.6 meq/L
  PL: 137 mg/dL
  RALB: 3.2 g/dL
  TBIL: 0.1 mg/dL
  TC: 69.2 mg/dL
  TG: 67.6 mg/dL
  TP: 5.3 g/dL
  gamma-GTP: 1.2 IU/L
9 h
  TERMINAL_BW: 219.3 g
  APTT: 20.6 s
  Bas: 0%
  Eos: 0.4%
  Fbg: 215 mg/dL
  Hb: 14.1 g/dL
  Ht: 38.6%
  Lym: 76.6%
  MCH: 22.1 pg
  MCHC: 36.5%
  MCV: 60.5 fL
  Mono: 3%
  Neu: 19%
  PT: 12.2 s
  Plat: 121.6 x10_4/uL
  RBC: 637.8 x10_4/ul
  Ret: 7.7%
  WBC: 96.4 x10_2/uL
  KIDNEY_L: 1 g
  KIDNEY_R: 1 g
  KIDNEY_TOTAL: 2 g
  LIVER: 9.3 g
  A/G: 1.7
  ALP: 593.2 IU/L
  ALT: 26.6 IU/L
  AST: 58.6 IU/L
  BUN: 6.8 mg/dL
  CRE: 0.3 mg/dL
  Ca: 10.4 mg/dL
  Cl: 100 meq/L
  DBIL: 0.066 mg/dL
  GLC: 182 mg/dL
  IP: 9.5 mg/dL
  K: 4.1 meq/L
  LDH: 136 IU/L
  Na: 139.8 meq/L
  PL: 138.8 mg/dL
  RALB: 3.3 g/dL
  TBIL: 0.1 mg/dL
  TC: 70 mg/dL
  TG: 39 mg/dL
  TP: 5.2 g/dL
  gamma-GTP: 1 IU/L
24 h
  TERMINAL_BW: 234 g
  APTT: 19.2 s
  Bas: 0.8%
  Eos: 1%
  Fbg: 214.2 mg/dL
  Hb: 13.9 g/dL
  Ht: 38.4%
  Lym: 79.6%
  MCH: 21.8 pg
  MCHC: 36.2%
  MCV: 60.3 fL
  Mono: 2.2%
  Neu: 16%
  PT: 11.7 s
  Plat: 125.7 x10_4/uL
  RBC: 637 x10_4/ul
  Ret: 6.5%
  WBC: 106.3 x10_2/uL
  KIDNEY_L: 1.1 g
  KIDNEY_R: 1 g
  KIDNEY_TOTAL: 2.1 g
  LIVER: 11.5 g
  A/G: 1.6
  ALP: 882.2 IU/L
  ALT: 33.8 IU/L
  AST: 75.6 IU/L
  BUN: 16 mg/dL
  CRE: 0.4 mg/dL
  Ca: 10.8 mg/dL
  Cl: 102 meq/L
  DBIL: 0.058 mg/dL
  GLC: 180.6 mg/dL
  IP: 7.6 mg/dL
  K: 4.2 meq/L
  LDH: 264.4 IU/L
  Na: 142.4 meq/L
  PL: 142.2 mg/dL
  RALB: 3.5 g/dL
  TBIL: 0.1 mg/dL
  TC: 72 mg/dL
  TG: 113.2 mg/dL
  TP: 5.7 g/dL
  gamma-GTP: 1.2 IU/L
